From patent publication US20260274857A1, “CRYSTAL OF DIHYDROPYRIDINONE DERIVATIVE OR SOLVATE THEREOF” (Shionogi & Co., Ltd., priority 2022, published 2026)
One block for each compound: values may come before it.

Experiments:
Type in all cases: physicochemical
[1] = Powder solubility test (JP-1, JP-2, TCA/JP2); conditions: 37° C., 1 hour; for JP1 solubility: JP-1 solution; for TCA/JP2 solubility: JP-2 solution added with taurocholic acid; for JP2 solubility: JP-2 solution
Experimental: The solubility of the crystal of the present invention was evaluated with respect to the solubility when JP-1 solution, JP-2 solution, and JP-2 solution added with taurocholic acid (TCA/JP2) were used as a measurement medium. Evaluation was performed at a dissolved concentration (μg/mL) by an HPLC method.
About 1 mg of the crystal of the present invention was weighed in a 4 mL glass container, and 2 mL of JP-2 solution (1000 mL of water was added to 1.70 g of potassium dihydrogen phosphate and 1.775 g of anhydrous disodium hydrogen phosphate) was added to each container. The mixture was sealed with a polyethylene stopper with Teflon and silicone packing, shaken at 37° C. for 1 hour, and then filtered, and 400 μL of methanol was added to 800 μL of the filtrate to perform 1.5 fold dilution. Whether there were bubbles and precipitates was confirmed, and the compound of the crystal of the present invention was quantified using HPLC by an absolute calibration curve method to calculate the solubility.

[2] = Test Example 2: solid stability, 40° C. 89% RH 3 months, amount of analogous substance
Experimental: The crystal and amorphous substance of the compound represented by Formula (I) obtained in Example 1 were stored (40° C., 89% RH 3M) in a hermetically sealed container at 40° C. and a relative humidity of 89% for 3 months, and subjected to a solid stability test to evaluate the amount of an analogous substance.
The crystal or amorphous substance of the compound represented by Formula (I) obtained in Example 1 was dissolved in an acetonitrile aqueous solution (acetonitrile:water=1:1) to prepare a sample solution to be exactly 500 μg/mL.
The purity and the amount of the analogous substance were measured by an area percentage method under the HPLC conditions 1 described in Test Example 1.
The results of the crystal and amorphous substance of the compound represented by Formula (I) obtained in Example 1 are described in the following table. Impurities detected at a retention time (RT, retention time) of 17.527 minutes indicate an increase amount with respect to a standard product.

[3] = Moisture adsorption/desorption isotherm measurement (DVS); conditions: 25° C.; for difference in water content between 0% RH and 95% RH: DVS
Source text: The moisture adsorption/desorption isotherm measurement is a measurement method for measuring the adsorption and desorption behavior of moisture by measuring a weight change in a solid as a measurement target under each relative humidity condition.
As a basic measurement method, based on the dry weight at 0% RH (relative humidity 0%), the relative humidity is increased every 5% or 10%, and after the weight is stabilized at each relative humidity, the amount of adsorbed water can be determined from the weight increase from the reference value. Similarly, the desorption amount of water can be measured by decreasing the relative humidity every 5% or 10% from 100% RH or 95% RH.
By plotting the value of the weight change at each relative humidity, an adsorption/desorption isotherm can be obtained.
Sorption and desorption of adhesion water and crystal water are affected by particle size, crystallinity, crystal habit, and the like, so that the measurement results may slightly change.
The crystals and amorphous substances obtained in each Example were weighed in an aluminum pan, and allowed to stand at 25° C. and a relative humidity of 0%. The measurement was started after the compound was sufficiently dried and the weight was stabilized, and the weight when the relative humidity changed from 0% to 95% by 5% was recorded. Next, the weight when the relative humidity changed from 95% to 0% by 5% was recorded.
Device: DVS Advantage manufactured by Surface Measurement Systems

[4] = Solid stability test: storage stability (amount of analogous substance by HPLC, appearance); conditions: temperature, temperature and humidity conditions, light irradiation; analogous substance by HPLC and appearance
Experimental: For the solid stability of the crystal of the compound represented by Formula (I) obtained in Example 1 and the crystal of the compound represented by Formula (II) obtained in Example 16, the chemical stability under temperature, temperature and humidity conditions, and light irradiation was evaluated. The proportion (%) of the analogous substance produced by an HPLC method and the change in appearance were evaluated.
About 10 mg of the crystal was accurately weighed in a 2 mL glass container with a polyethylene stopper. After the glass container was closed, the glass container was stored at 40° C. or 60° C. for 2 weeks, 1 month, 2 months, 3 months, or 6 months. A sample stored at 40° C. is referred to as a 40° C. hermetically sealed product, and a sample stored at 60° C. is referred to as a 60° C. hermetically sealed product. In a state where the glass container was opened, the glass container was stored at a relative humidity of 75±5% at 40° C. or a relative humidity of 89±5% for 2 weeks, 1 month, 2 months, 3 months or 6 months, or in the presence of silica gel at 40° C. for 1 month, 2 months, 3 months or 6 months. A sample stored at 40° C. and a relative humidity of 75±5% or 89±5% is referred to as a 40° C. and 75% relative humidity (also referred to as 40±2° C./75±5% RH) or 40° C. and 89% relative humidity (also referred to as 40±2° C./89% RH) stored product, and a sample stored in the presence of silica gel at 40° C. is referred to as a 40° C. stored product. The −40° C. hermetically sealed product was used as a standard product.
The amount of the analogous substance was measured by an area percentage method by the HPLC method under the following conditions.
HPLC Conditions 1 were used for the crystal and amorphous substance of the compound represented by Formula (I) obtained in Example 1, and HPLC conditions 2 were used for the crystal of the compound represented by Formula (II) obtained in Example 16.
• Detector: ultraviolet absorptiometer (measurement wavelength: 260 nm) • Column: YMC-Triart C18 ExRS, S-1.9 μm, 3.0×100 mm • Column temperature: constant temperature at near 40° C. • Mobile phase A: 0.1% formic acid aqueous solution • Mobile phase B: acetonitrile • Flow rate: about 0.6 mL/min • Injection amount: 3 μL • Sample cooler temperature: about 6° C. • Feed of mobile phase: The mixing ratio of mobile phase A and mobile phase B was changed as shown in Table 18 to control concentration gradient.
Column: Cortecs (2.7 μm 3.0×100 mm)
Column temperature: 40° C.
UV detection wavelength: 254 nm

JP1 solubility [1]: 59.4 µg/mL
TCA/JP2 solubility [1]: 143.1 µg/mL
JP2 solubility [1]: 74.1 µg/mL
SMILES: Cc1ccc(-n2nc3c(c2NC(=O)CS(C)(=O)=O)C(=O)NC2(CCOc4cc(F)cc(F)c42)C3)nc1 (stereo not drawn) [Compound crystal of Formula (I)]

JP1 solubility [1]: 33.6 µg/mL
TCA/JP2 solubility [1]: 73.6 µg/mL
JP2 solubility [1]: 37.5 µg/mL
SMILES: CS(=O)(=O)CC(=O)Nc1c2c(nn1CCCOC(F)(F)F)CC1(CCOc3cc(OCC(F)(F)F)ccc31)NC2=O (stereo not drawn) [Compound crystal of Formula (II)]

impurities detected at a retention time of 17.527 minutes, increase with respect to standard product (in words) [2]: greatly increased
difference in water content between 0% RH and 95% RH [3]: about 7.0%
SMILES: Cc1ccc(-n2nc3c(c2NC(=O)CS(C)(=O)=O)C(=O)N[C@@]2(CCOc4cc(F)cc(F)c42)C3)nc1 [amorphous substance of the compound represented by Formula (]

difference in water content between 0% RH and 95% RH [3]: about 1.4%
Moisture adsorption amount ([3]; relative humidity 0.0%): 0.000%
Moisture desorption amount ([3]; relative humidity 0.0%): 0.063%
Moisture adsorption amount ([3]; relative humidity 5.0%): 0.064%
Moisture desorption amount ([3]; relative humidity 5.0%): 0.153%
Moisture adsorption amount ([3]; relative humidity 10.0%): 0.115%
Moisture desorption amount ([3]; relative humidity 10.0%): 0.230%
Moisture adsorption amount ([3]; relative humidity 15.0%): 0.174%
Moisture desorption amount ([3]; relative humidity 15.0%): 0.316%
Moisture adsorption amount ([3]; relative humidity 20.0%): 0.234%
Moisture desorption amount ([3]; relative humidity 20.0%): 0.395%
Moisture adsorption amount ([3]; relative humidity 25.0%): 0.321%
Moisture desorption amount ([3]; relative humidity 25.0%): 0.509%
Moisture adsorption amount ([3]; relative humidity 30.0%): 0.449%
Moisture desorption amount ([3]; relative humidity 30.0%): 0.638%
Moisture adsorption amount ([3]; relative humidity 35.0%): 0.549%
Moisture desorption amount ([3]; relative humidity 35.0%): 0.740%
Moisture adsorption amount ([3]; relative humidity 40.0%): 0.639%
Moisture desorption amount ([3]; relative humidity 40.0%): 0.830%
Moisture adsorption amount ([3]; relative humidity 45.0%): 0.719%
Moisture desorption amount ([3]; relative humidity 45.0%): 0.917%
Moisture adsorption amount ([3]; relative humidity 50.0%): 0.798%
Moisture desorption amount ([3]; relative humidity 50.0%): 0.989%
Moisture adsorption amount ([3]; relative humidity 55.0%): 0.867%
Moisture desorption amount ([3]; relative humidity 55.0%): 1.052%
Moisture adsorption amount ([3]; relative humidity 60.0%): 0.925%
Moisture desorption amount ([3]; relative humidity 60.0%): 1.113%
Moisture adsorption amount ([3]; relative humidity 65.0%): 1.003%
Moisture desorption amount ([3]; relative humidity 65.0%): 1.179%
Moisture adsorption amount ([3]; relative humidity 70.0%): 1.070%
Moisture desorption amount ([3]; relative humidity 70.0%): 1.237%
Moisture adsorption amount ([3]; relative humidity 75.0%): 1.150%
Moisture desorption amount ([3]; relative humidity 75.0%): 1.288%
Moisture adsorption amount ([3]; relative humidity 80.0%): 1.196%
Moisture desorption amount ([3]; relative humidity 80.0%): 1.314%
Moisture adsorption amount ([3]; relative humidity 85.0%): 1.266%
Moisture desorption amount ([3]; relative humidity 85.0%): 1.369%
Moisture adsorption amount ([3]; relative humidity 90.0%): 1.350%
Moisture desorption amount ([3]; relative humidity 90.0%): 1.407%
Moisture adsorption amount ([3]; relative humidity 95.0%): 1.426%
Moisture desorption amount ([3]; relative humidity 95.0%): 1.426%
SMILES: Cc1ccc(-n2nc3c(c2NC(=O)CS(C)(=O)=O)C(=O)N[C@@]2(CCOc4cc(F)cc(F)c42)C3)nc1 [crystal of the compound represented by Formula (I) obtained ]
solid stability (in words) [4]: excellent in solid stability under any conditions
impurities detected at a retention time of 17.527 minutes, increase with respect to standard product (in words) [2]: increase in impurities could be greatly suppressed
